In assay [1] the target is nitrogenase. The conditions noted are these: competitive inhibition of nitrogenase; cited from earlier work.
Assay [2] deals with glutamine synthetase (GS). The assay can be described thus: NH3 secretion in the hybrid device after addition of GS inhibitor. Type of assay: cell-based, X. autotrophicus. The settings on record: 50 μM inhibitor. As for the experimental part:
Eappl is defined as the voltage difference between the working (OER) and counter/reference (HER) electrodes in a two-electrode configuration. After inoculation with X. autotrophicus (initial OD600=0.2), the reactor was purged with the gas mixture at a flow rate between 5 to 20 mL min^−1. These electrochemical cells were stirred at 350 rpm to facilitate mass transport and were immersed in a 30° C. water bath. The electrolyte was sampled every 12 or 24 hr to quantify OD600 and N accumulation. For time points in which […] (GS) inhibitor phosphinothricin (PPT) was added with final concentration of 50 μM, aliquots were sampled prior to inhibitor addition. The reported data are based on at least three biological replicates (n≥3).
Ntotal was determined from sampled aliquots after persulfate digestion and based on the absorption of oxidized phenol under acidic conditions (Hach Company 2672245). Nsoluble was determined similarly as Ntotal, except that the supernatants after 10,000 rpm centrifugation were digested in persulfate and subsequently analyzed. NH3 was also determined from the supernatants after centrifugation, but based on the salicylate method that is selective to ammonia (Hach Company TNT830). […] For each category of nitrogen content, the nitrogen concentrations were determined by comparing the solution absorbance with those in standard curves. When PPT was added to induce NH3 secretion, the measured nitrogen concentrations presented in FIG. 5B and Table 3 was subtracted from the nitrogen in PPT (2 nitrogen atoms per each PPT molecule for Ntotal, and 1 nitrogen atom per each PPT for NH3). The PPT nitrogen content was also subtracted when calculating ηelec, NRR in Table 1.

For assay [3], the system named is X. autotrophicus. The conditions noted are these: read-out: half maximum inhibitory concentration (IC50).

For `[HH]` [H2, hydrogen], the “inhibition constant Ki(D2)” value in assay [1] is on record as roughly 11 kPa.

For `CP(=O)(O)CC[C@H](N)C(=O)O` [PPT, phosphinothricin], in assay [2], the “biomass of X. autotrophicus after inhibitor addition” value is listed as “stagnated”. Further, the “concentration of NNH3 at end of experiment” value in assay [2] (Eappl=3.0 V) is on record as roughly 0.8 mM. Moreover, in assay [2] (Eappl=3.0 V, n=3), the “accumulated Ntotal” value amounted to 47 ± 3 mg/L and the “concentration of N in free NH3 in the solution (NNH3) at end of experiment” value amounted to 11 ± 2 mg/L. The “biomass of X. autotrophicus after inhibitor addition” value in assay [2] (listed as phosphinothricin) is recorded as “slows”.

Consider `[Co+2]` [Co2+], for which the IC50 in assay [3] is roughly 50 µM.

The record behind these values is patent US20200102254A1, “BIOFERTILIZER AND METHODS OF MAKING AND USING SAME” (President and Fellows of Harvard College, priority 2017, published 2020).
